The values that follow come from patent publication US20080132510A1, “Imidazolylmethyl and Pyrazolylmethyl Heteroaryl Derivatives” (priority 2005, published 2008).

As a reminder, the Kd is the constant that tells how readily two partners part at equilibrium.

Molecules are shown by their SMILES.

In the assay the target is benzodiazepine site of the GABAA receptor. The assay is described as follows: Ligand binding assay (3H-Ro15-1788 displacement, purified rat cortical membranes). Particulars: previously determined; used in the Cheng-Prusoff equation; read-out: binding dissociation constant (Kd) of the radioligand.

For `CCOC(=O)c1ncn2c1CN(C)C(=O)c1cc(F)ccc1-2` [^3H—R15-1788], the Kd was 1 nM.
